Consider six molecules from paper PMC8416020 (eLife, 2021).

“And” between values parts separate entries of the source, which are not always exact repeats. Identical values can stand only once. Like-named read-outs stand apart in the source and are kept apart here.

Experiment [1] concerns GHSR labeled with 7H4MC-ethylglycine at F272^6.44. Briefly: Hydration parameter H from 7H4MC fluorescence emission. To be noted: for H parameter: 6.44, ligand 10 µM, POPC:POPG nanodiscs, 15°C, ex 320 nm. The experiment is classed as biochemical, human. The text has this: (§1) We then investigated whether the fluorescence properties of 7H4MC-ethylglycine could report on the local hydration features of GHSR. To this end, we analyzed the 7H4MC emission profile for each of the positions considered. An excitation wavelength of 320 nm was systematically used to excite the neutral form of the fluorophore ([Amaro et al., 2015]). The emission spectra were deconvoluted into their separate components using the procedure initially described ([Amaro et al., 2015]). A hydration parameter H was then determined that corresponded to the sum of the contributions of the anionic and tautomer forms. This parameter is an indicator of the extent of hydration at the position considered, as the higher the H parameter the higher local hydration ([Amaro et al., 2015]). A difference in the H parameter inferred for the 7H4MC probe at the different positions of the apo GHSR was observed depending on the position considered (Figure 2—figure supplement 1, 2).
(§2) Figure 2. Local hydration of growth hormone secretagogue receptor (GHSR) as a function of ligands. […] All ligands were used at a 10 µM concentration. In all cases, the data represents the mean value ± SD of three experiments. Statistical analyses are provided in […]—figure supplement 2 and 4. Figure 2—source data 1. H parameter for GHSR and its mutants. Figure 2—figure supplement 1. Emission spectra of L-(7-hydroxycoumarin-4-yl) (7H4MC)-ethylglycine incorporated into isolated growth hormone secretagogue receptor (GHSR). The spectra were recorded in the absence of ligand. The labeling positions are given in a snake-like plot of GHSR ([Shiimura et al., 2020]) (A) (red: positions deleterious to GHSR function; green: positions considered in this work), and then indicated in each panel (B–F). The excitation wavelength was set to 320 nm with an emission intensity recorded between 340 and 600 nm. The gray curve represents the experimental emission spectrum (exp). The red, blue, green, and magenta spectra represent the decomposition of the experimental spectrum into its neutral (N), complexed (C), anionic (A), and tautomeric (T) components, respectively. The orange curve (fit) corresponds to sum of the individual N, C, A, and T curves. Figure 2—figure supplement 1—source data 1. 7-H4MC emission intensity of the apo GHSR mutants. [drawing 7] Figure 2—figure supplement 2. Statistical analysis of the data in Figure 2. […] Data is from Figure 2. […] Structure of the ligands used throughout this work. [drawing 9] Figure 2—figure supplement 4. Statistical analysis of the data in Figure 2. The left panels show the hydration parameter for each of the mutants in the absence or in the presence of ligands. Data are from Figure 2. The right panels show the mean difference between the apo and the ligand-loaded states for each of the mutants with multiplicity-adjusted 95% confidence intervals. [drawing 10] Figure 2—figure supplement 5. Emission spectra of L-(7-hydroxycoumarin-4-yl) (7H4MC)-ethylglycine incorporated at position 5.58 of growth hormone secretagogue receptor (GHSR) in the presence of pharmacologically distinct ligands or phosphatidylinositol-4,5-bisphosphate (PIP2). […] The excitation wavelength was set to 320 nm with an emission intensity recorded between 340 and 600 nm. The black curve represents the experimental emission spectrum (exp). The red one (fit) corresponds to sum of the individual curves after decomposition of the experimental spectrum into its neutral, complexed, anionic, and tautomeric components. Figure 2—figure supplement 5—source data 1. 7-H4MC emission intensity of the GHSR 5.58 mutant in the presence of ligands. [drawing 11] Figure 2—figure supplement 6. […]

For experiment [2], the system named is GHSR labeled with 7H4MC-ethylglycine at I134^3.43. The experiment is described as above. The settings on record: ligand 10 µM, POPC:POPG nanodiscs, 15°C, ex 320 nm. It counts as biochemical, human.
Text: as §1, §2

For experiment [3], the system named is GHSR labeled with 7H4MC-ethylglycine at V268^6.40. The experiment is described as above. The experiment is classed as biochemical, human. To be noted: 6.4, ligand 10 µM, POPC:POPG nanodiscs, 15°C, ex 320 nm.
Text: as §1, §2

For experiment [4], the system named is GHSR labeled with 7H4MC-ethylglycine at Y232^5.58. Described as above. It counts as biochemical, human. The settings on record: for H parameter: 5.58, ligand 10 µM, POPC:POPG nanodiscs, 15°C, ex 320 nm.
Text: as §1, §2

Experiment [5] has as its system GHSR labeled with 7H4MC-ethylglycine at S315^7.45. The experiment is described as above. The experiment is classed as biochemical, human. To be noted: ligand 10 µM, POPC:POPG nanodiscs, 15°C, ex 320 nm.
Text: as §1, §2

The test system of experiment [6] is GHSR. To be noted: ref M'Kadmi et al., 2015; cited from earlier work.
Experiment [7] relates to 7H4MC-labeled GHSR. Briefly: Hydration parameter H from 7H4MC fluorescence emission, several positions together. It counts as biochemical, human. To be noted: any of the positions considered; saturating ligand (10 µM).
Text: as §1
Figure 2. Local hydration of growth hormone secretagogue receptor (GHSR) as a function of ligands. […] All ligands were used at a 10 µM concentration. […] The spectra were recorded in the absence of ligand. […] The excitation wavelength was set to 320 nm with an emission intensity recorded between 340 and 600 nm. […] The excitation wavelength was set to 320 nm with an emission intensity recorded between 340 and 600 nm. […]

Experiment [8] deals with isolated GHSR. To be noted: ref Mary et al., 2012; Damian et al., 2015; cited from earlier work. An excerpt: We then used 7H4MC fluorescence to monitor the impact of ligand binding on the hydration pattern of GHSR.
Experiment [9] relates to GHSR. To be noted: ref Ferré et al., 2019; cited from earlier work. On the procedure:
For labeling with 7H4MC-ethylglycine, the TAG amber codon was introduced at the positions indicated in Figure 1A by site-directed mutagenesis with the pET21a expression vector encoding human GHSR fused to the α5 integrin ([Damian et al., 2012]). The UAA solution was prepared by dissolving 263 mg of 7H4MC-ethylglycine in 10 mL 200 mM KOH solution and filter-sterilizing. […] Cultures were grown at 37°C ...

The target in experiment [10] is GHSR (Homo sapiens) (UniProt Q92847). Kind of experiment: FRET. The settings on record: cited from earlier work.
The target is the same in experiment [11]. The settings on record: cited from earlier work.
For experiment [12] the target is unchanged. Kind of experiment: 125I-ghrelin radioligand binding. The settings on record: cited from earlier work.
Experiment [13] concerns the target GHSR1a (Homo sapiens) (UniProt Q92847). The settings on record: cited from earlier work.
The test system of experiment [14] is ghrelin receptor. The settings on record: ref Damian et al., 2021; cited from earlier work. An excerpt:
(§3) In addition to ligands, other components in the receptor environment allosterically impact on GPCR activation and conformational dynamics. […] Among the lipids reported to affect GPCR signaling such as cholesterol ([Casiraghi et al., 2016]; [Zocher et al., 2012]) or charged phospholipids ([Strohman et al., 2019]; [Daw ...

Experiment [15] concerns neurotensin receptor 1. To be noted: ref Yen et al., 2018; cited from earlier work.
Text: as §3

The subject of experiment [16] is adenosine A2a receptor. The settings on record: ref Yen et al., 2018; cited from earlier work.
Text: as §3

The subject of experiment [17] is β1-adrenergic receptor. To be noted: ref Yen et al., 2018; cited from earlier work.
Text: as §3

The target in experiment [18] is T1, GHSR (Homo sapiens, UniProt Q92847).
T1 chain: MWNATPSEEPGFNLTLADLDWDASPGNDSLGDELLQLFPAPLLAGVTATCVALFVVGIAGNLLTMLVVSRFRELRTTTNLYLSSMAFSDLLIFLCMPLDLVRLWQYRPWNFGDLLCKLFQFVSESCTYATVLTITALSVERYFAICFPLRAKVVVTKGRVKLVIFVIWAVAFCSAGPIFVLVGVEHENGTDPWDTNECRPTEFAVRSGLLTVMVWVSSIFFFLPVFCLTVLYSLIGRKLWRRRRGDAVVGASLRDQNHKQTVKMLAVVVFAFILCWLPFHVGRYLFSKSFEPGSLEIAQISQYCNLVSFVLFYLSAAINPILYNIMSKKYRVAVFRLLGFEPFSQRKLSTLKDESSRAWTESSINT
Briefly: FRET.

The mark [19] stands for this setting: saturating ligand (10 µM), vs apo.
[20] abbreviates: 2.5% PIP2 in nanodiscs, 10 µM ghrelin.

Turning to `COc1ccc(Cn2c(CCc3ccccc3)nnc2[C@@H](Cc2c[nH]c3ccccc23)NC(=O)c2ccccn2)c(OC)c1` [JMV3002], the H parameter is listed as 24.24 in experiment [1] (replicate 1); 22.63 in [1] (replicate 2); 23.15 in experiment [1] (replicate 3); 67.89 in experiment [2] (replicate 1); 65.22 in experiment [2] (replicate 2); 66.89 in [2] (replicate 3). Besides, the H parameter worked out at 66.83 in [3] (replicate 1); 65.42 in experiment [3] (replicate 2); 67.29 in experiment [3] (replicate 3); 26.59 in experiment [4] (replicate 1); 27.63 in [4] (replicate 2); 28.26 in experiment [4] (replicate 3). Moreover, the results for the H parameter in experiment [5] (replicate 1), in [5] (replicate 2) and in [5] (replicate 3) were 21.56, 20.44 and 18.97, respectively. Also, in [1] (setting [19]), the “change in the hydration parameter at position 6.44 upon binding” value is reported as “decrease in the hydration parameter at position 6.44”. In experiment [4] (setting [19]), the “change in the hydration parameter at position 5.58 upon binding” value was “no change was observed for the probe at position 5.58”. In addition, the “Gi activation and arrestin recruitment” value in [6] is “triggers neither Gi activation nor arrestin recruitment”. Further, the pharmacological class result in [6] is listed as “Gq-biased partial agonist”.
Regarding `COc1ccc(Cn2c(CCc3c[nH]c4ccccc34)nnc2C(Cc2c[nH]c3ccccc23)NC(=O)c2ccccn2)c(OC)c1` (stereo not shown) [JMV3011], the H parameter is 34.06 in [1] (replicate 1); 36.74 in experiment [1] (replicate 2); 35.98 in [1] (replicate 3); 62.25 in experiment [2] (replicate 1); 63.97 in experiment [2] (replicate 2); 62.73 in experiment [2] (replicate 3). Besides, the H parameter in experiment [3] (replicate 1) amounted to 64.53; in [3] (replicate 2) it was 63.48; in experiment [3] (replicate 3), 65.36; in [4] (replicate 1) it was 24.19; in [4] (replicate 2), 26.01; in [4] (replicate 3) it was 26.56. In addition, the H parameter in experiment [5] (replicate 1) came out at 21.2; in experiment [5] (replicate 2), 22.69; in experiment [5] (replicate 3), 23.47. In experiment [6], the pharmacological class entry is “neutral antagonist”. Moreover, the “change in the hydration parameter upon binding” value in [7] is recorded as “not accompanied by a measurable change in the hydration parameter”. Besides, the “change in the conformation of isolated GHSR” value in [8] is “not associated with any change in the conformation of isolated GHSR”.
For the molecule JMV2959, in [9], the “pharmacological class (affinity chromatography ligands)” value is “antagonist”.
As for ghrelin (from UniProt Q9UBU3), the Ki in experiment [10] was 4.6 nM. Also, the Kd in [11] was 12.5 nM; in experiment [12] it was 4.4 nM and 2.3 nM; in experiment [13] it was 0.4 nM.
For “phosphatidylinositol-4,5-bisphosphate [PIP2]”, the “effect of adding PIP2 on the H parameter for position 6.44” value in experiment [1] (setting [20]) was “decreased that for position 6.44”. For the same molecule, in experiment [4] (setting [20]), the “effect of adding PIP2 on the H parameter for position 5.58” value is listed as “increased the H parameter for position 5.58”. In experiment [14], the “effect on ghrelin signaling” value is “allosteric regulator of ghrelin signaling”. Besides, the “stabilization of the receptor:G protein complex” value in experiment [15], in experiment [16] and in experiment [17] was “stabilize the receptor:G protein complex” throughout.
GSSFLSPEHQRVQQRKESKKPPAKLQP [ghrelin] registered a Ki in experiment [18] of 77 nM.

For orientation: Ki means the dissociation constant of the complex between target and ligand, obtained from inhibition or displacement. What is called Kd is the concentration at which binding is half-saturated.
